Values of other authors in patent US6384084B2, “Histochrome and its therapeutic use in ophthalmology” (Tikhookeansky Institut Bioorganicheskoi Khimii …, priority 1998, dated 2002).

What was measured:
[1] = rabbits, 0.5% solution, subconjunctival and parabulbar
[2] = patients, 0.5% solution

Compound	Effect on epithelization of the cornea and inflammatory processes in eye burns [1]	Pain at the time of administration [2]	Resorption of intraocular hemorrhages (injection of a 1% solution)	Adverse effect in the course of therapy (monitoring of blood coagulation required)
CCc1c(O)c(O)c2c(c1O)C(=O)C(O)=C(O)C2=O [echinochrome, 2,3,5,6,8-pentahydroxy-7-ethyl-1,4-naphthoquinone]	able to facilitate epithelization of the cornea at early stages of the treatment of eye burns and to alleviate inflammatory processes in the eye	patients experienced acute pain at the time of administration		
CCc1nc(C)ccc1O [Emoxipin]			facilitates the resorption of intraocular hemorrhages	liable to cause reccurrent hemorrhages
